Measurements reported in ChEMBL document CHEMBL1201862, “PubChem BioAssay data set” (2004).
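Briefly, cells in 96-well plates were exposed to five compound concentrations for 48 h, and endpoints were estimated by linear interpolation. GI50 = concentration required for 50% inhibition of growth.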 Activity calls are given as the source filed them. Rule as the data show it: active = GI50 up to about 1.1 µM and inactive = higher.

Legend:
Test in all cases: NCI-60 cell line screen, 48 h
786-0 = tested on: 786-0
ACHN = tested on: ACHN
CAKI-1 = tested on: CAKI-1
HCT-116 = tested on: HCT-116
HCT-15 = tested on: HCT-15
LOX IMVI = tested on: LOX IMVI
NCI-H226 = tested on: NCI-H226
NCI-H23 = tested on: NCI-H23
NCI-H460 = tested on: NCI-H460
NCI-H522 = tested on: NCI-H522
OVCAR-8 = tested on: OVCAR-8
SF-539 = tested on: SF-539
SK-MEL-5 = tested on: SK-MEL-5
SR = tested on: SR
U-251 = tested on: U-251
CCRF-CEM = tested on: CCRF-CEM
Malme-3M = tested on: Malme-3M
SK-OV-3 = tested on: SK-OV-3
SN12C = tested on: SN12C
SNB-19 = tested on: SNB-19

CC1(C)C2CCC1(C)[C@H](n1c(=O)n([C@@H]3CC4CCC3(C)C4(C)C)c(=O)n([C@@H]3CC4CCC3(C)C4(C)C)c1=O)C2
GI50 (786-0): 28 µM (inactive) | GI50 (ACHN): 37.8 µM (inactive) | GI50 (CAKI-1): 66.7 µM (inactive) | GI50 (HCT-116): 36.7 µM (inactive) | GI50 (HCT-15): 49.2 µM | GI50 (LOX IMVI): > 100 µM (inactive) | GI50 (NCI-H226): 27.7 µM (inactive) | GI50 (NCI-H23): 63 µM (inactive) | GI50 (NCI-H460): 31.2 µM (inactive) | GI50 (NCI-H522): 37.4 µM (inactive) | GI50 (OVCAR-8): 49.9 µM (inactive) | GI50 (SF-539): 17.8 µM (inactive) | GI50 (SK-MEL-5): 34 µM (inactive) | GI50 (SR): 71.4 µM (inactive) | GI50 (U-251): 25.3 µM (inactive)

COCC(=O)CP(=O)(OC)OC
GI50 (786-0): > 100 µM (inactive) | GI50 (ACHN): > 100 µM (inactive) | GI50 (CAKI-1): > 100 µM (inactive) | GI50 (CCRF-CEM): > 100 µM (inactive) | GI50 (HCT-116): > 100 µM (inactive) | GI50 (HCT-15): > 100 µM | GI50 (LOX IMVI): > 100 µM (inactive) | GI50 (Malme-3M): > 100 µM (inactive) | GI50 (NCI-H23): > 100 µM (inactive) | GI50 (NCI-H460): > 100 µM (inactive) | GI50 (NCI-H522): > 100 µM (inactive) | GI50 (OVCAR-8): > 100 µM (inactive) | GI50 (SF-539): > 100 µM (inactive) | GI50 (SK-MEL-5): > 100 µM (inactive) | GI50 (SK-OV-3): > 100 µM (inactive) | GI50 (SN12C): > 100 µM (inactive) | GI50 (SNB-19): > 100 µM (inactive) | GI50 (U-251): > 100 µM (inactive)

COc1cc2c(cc1OC)[C@]1(O)C(=O)c3ccc4c(c3O[C@@H]1CO2)C[C@H](C(C)(C)O)O4
GI50 (786-0): > 100 µM (inactive) | GI50 (ACHN): 15.1 µM (inactive) | GI50 (CCRF-CEM): 68.1 µM (inactive) | GI50 (HCT-116): 26.2 µM (inactive) | GI50 (LOX IMVI): 11.1 µM (inactive) | GI50 (Malme-3M): 8.89 µM (inactive) | GI50 (NCI-H23): 2.65 µM (inactive) | GI50 (NCI-H460): > 100 µM (inactive) | GI50 (NCI-H522): 5.86 µM (inactive) | GI50 (OVCAR-8): 85.3 µM (inactive) | GI50 (SF-539): > 100 µM (inactive) | GI50 (SK-OV-3): > 100 µM (inactive) | GI50 (SNB-19): > 100 µM (inactive) | GI50 (U-251): > 100 µM (inactive)

Nc1nc(CCl)nc(N2CCOCC2)n1
GI50 (786-0): 14 µM (inactive) | GI50 (ACHN): 16.6 µM (inactive) | GI50 (CAKI-1): 16.5 µM (inactive) | GI50 (CCRF-CEM): 18.6 µM (inactive) | GI50 (HCT-116): 21.5 µM (inactive) | GI50 (HCT-15): 16 µM | GI50 (NCI-H226): 37.4 µM (inactive) | GI50 (NCI-H23): 17.8 µM (inactive) | GI50 (NCI-H460): 17.7 µM (inactive) | GI50 (NCI-H522): 3.4 µM (inactive) | GI50 (OVCAR-8): 34.8 µM (inactive) | GI50 (SF-539): 22.8 µM (inactive) | GI50 (SK-MEL-5): 20.1 µM (inactive) | GI50 (SK-OV-3): 45.6 µM (inactive) | GI50 (SN12C): 36.1 µM (inactive) | GI50 (SNB-19): > 100 µM (inactive) | GI50 (SR): 21.3 µM (inactive) | GI50 (U-251): 22.4 µM (inactive)

COc1cc2c(cc1OC)C1=Cc3ccc(OC)c(OC)c3C(C#N)N1CC2 (stereo unspecified)
GI50 (786-0): 78.5 µM (inactive) | GI50 (ACHN): > 100 µM (inactive) | GI50 (CAKI-1): > 100 µM (inactive) | GI50 (CCRF-CEM): 37.9 µM (inactive) | GI50 (HCT-116): 36.1 µM (inactive) | GI50 (HCT-15): > 100 µM | GI50 (Malme-3M): 22.4 µM (inactive) | GI50 (NCI-H226): > 100 µM (inactive) | GI50 (NCI-H23): 29.8 µM (inactive) | GI50 (NCI-H460): 31.7 µM (inactive) | GI50 (NCI-H522): 30 µM (inactive) | GI50 (SF-539): 13.8 µM (inactive) | GI50 (SK-MEL-5): 17.2 µM (inactive) | GI50 (SK-OV-3): > 100 µM (inactive) | GI50 (SN12C): 35.2 µM (inactive) | GI50 (SNB-19): 41.3 µM (inactive) | GI50 (U-251): 21.6 µM (inactive)

O=P1(Oc2ccccc2)NCc2ncccc2O1 (stereo unspecified)
GI50 (786-0): > 100 µM (inactive) | GI50 (ACHN): > 100 µM (inactive) | GI50 (CAKI-1): > 100 µM (inactive) | GI50 (CCRF-CEM): > 100 µM (inactive) | GI50 (HCT-116): > 100 µM (inactive) | GI50 (HCT-15): > 100 µM | GI50 (LOX IMVI): > 100 µM (inactive) | GI50 (NCI-H226): > 100 µM (inactive) | GI50 (NCI-H23): > 100 µM (inactive) | GI50 (NCI-H460): > 100 µM (inactive) | GI50 (OVCAR-8): > 100 µM (inactive) | GI50 (SF-539): > 100 µM (inactive) | GI50 (SK-MEL-5): > 100 µM (inactive) | GI50 (SN12C): > 100 µM (inactive) | GI50 (SNB-19): > 100 µM (inactive) | GI50 (SR): > 100 µM (inactive) | GI50 (U-251): > 100 µM (inactive)

O=C1C(c2ccccc2)=C(c2ccccc2)[C@H](c2ccccc2)[C@]1(Cc1nnn(-c2ccc([N+](=O)[O-])cc2)c1N1CCOCC1)c1ccccc1
GI50 (786-0): > 37.5 µM (inactive) | GI50 (ACHN): 14.5 µM (inactive) | GI50 (CAKI-1): > 37.5 µM (inactive) | GI50 (CCRF-CEM): > 37.5 µM (inactive) | GI50 (HCT-116): 28.7 µM (inactive) | GI50 (HCT-15): > 37.5 µM | GI50 (LOX IMVI): 24.5 µM (inactive) | GI50 (NCI-H23): > 37.5 µM (inactive) | GI50 (NCI-H460): > 37.5 µM (inactive) | GI50 (OVCAR-8): > 37.5 µM (inactive) | GI50 (SF-539): > 37.5 µM (inactive) | GI50 (SK-MEL-5): 19.1 µM (inactive) | GI50 (SK-OV-3): > 37.5 µM (inactive) | GI50 (SN12C): > 37.5 µM (inactive) | GI50 (SNB-19): 35.9 µM (inactive) | GI50 (U-251): > 37.5 µM (inactive)

N#CC(C(=O)/C(=N\Nc1nc(S)nn1N)C(C#N)c1ccc(Cl)cc1)c1ccc(Cl)cc1 (stereo unspecified)
GI50 (786-0): > 100 µM (inactive) | GI50 (ACHN): > 100 µM (inactive) | GI50 (CAKI-1): > 100 µM (inactive) | GI50 (HCT-116): > 100 µM (inactive) | GI50 (HCT-15): > 100 µM | GI50 (LOX IMVI): > 100 µM (inactive) | GI50 (Malme-3M): > 100 µM (inactive) | GI50 (NCI-H226): > 100 µM (inactive) | GI50 (NCI-H23): > 100 µM (inactive) | GI50 (NCI-H460): > 100 µM (inactive) | GI50 (OVCAR-8): > 100 µM (inactive) | GI50 (SF-539): > 100 µM (inactive) | GI50 (SK-OV-3): > 100 µM (inactive) | GI50 (SN12C): > 100 µM (inactive) | GI50 (SNB-19): > 100 µM (inactive) | GI50 (U-251): > 100 µM (inactive)
